Assay results as given in patent publication US20250002954A1, “Novel Compound, Use Thereof, and Method for Producing Same, and Compound-Containing Composition, Method for Producing 4-Trehalosamine, and Microorganism” (Microbial Chemistry Research Foundation, priority 2021, published 2025).

Columns and labels:
[1] = Dynamic viscoelasticity measurement of corn starch gel; type: physicochemical; conditions: corn starch gel with 10% aqueous solution, 4° C., after 96 hours
Experimental: In 20-mL glass vials, corn starch (manufactured by FUJIFILM Wako Pure Chemical Corporation) was mixed with each of the 10% aqueous solution of 4-trehalosamine (4TA), 10% aqueous solution of trehalose (TRH), 10% aqueous solution of sucrose (SCR), and 10% aqueous solution of glycerol (GOL), which are the test samples, or water as control to a final concentration of 15% (w/w) and uniformly suspended, and the suspensions were autoclaved at 121° C. for 20 minutes to gel them. For each of them, 0-hour sample and 96-hour sample were prepared.
After cooling them to room temperature, dynamic viscoelasticity measurement was performed on the 0-hour sample within 4 hours. The 96-hour sample was left to stand at 4° C. for 96 hours and then subjected to dynamic viscoelasticity measurement.
The dynamic viscoelasticity measurement was performed using a MCR300 rheometer (manufactured by Physica, Stuttgart, Germany) under the condition of the gap of a 25-mm parallel plate measurement tool being 1.0 mm. Under the conditions of a fixed frequency of 1.0 Hz, a strain amplitude of 1%, and 25° C., a storage modulus (G′) and a loss modulus (G″) were measured and a loss tangent (tan δ=G″/G′) was calculated. In FIG. 15K, the value of tan δ is indicated on the vertical axis (n=5, mean±S.D.).

[2] = Starch aging inhibiting effect, enzyme assay 1 and 2 (β-amylase degradation of corn starch gel)
Experimental: After the individual test samples were mixed into corn starch gel and left to stand at low temperature for 96 hours, the aging level was evaluated via a degradation experiment using β-amylase. The method described below is an evaluation scheme that is an improvement over the BAP method (K. Kainuma, et al, Journal of the Japanese Society of Starch Science 1981, 28, 235.) and only uses β-amylase.
The 4-trehalosamine (4TA) obtained in production example 10, and trehalose (TRH), sucrose (SCR), and glycerol (hereinafter, sometimes referred to as “GOL”) were each dissolved in water to a final concentration of 10% (w/w), thus preparing aqueous solutions. […]
Quantification (absorbance measurement) of enzyme reaction and sugar were performed for the 24-hour, the 48-hour, or the 96-hour sample in a similar manner to the quantification (absorbance measurement) of enzyme reaction and sugar for the 0-hour sample except that the measurement sample was changed to the 24-hour sample, the 48-hour sample, or the 96-hour sample in the quantification (absorbance measurement) of enzyme reaction and sugar for the 0-hour sample. […]

[3] = Starch aging inhibiting effect, enzyme assay 4 (rice flour gel); conditions: final concentration 10% or 15% (w/w), 48 and 96 hours
Experimental: Starch aging inhibiting effect was determined in a similar manner to the <Enzyme assay 3> except that potato starch was changed to rice flour (manufactured by OSAWA JAPAN) in the “—Preparation of measurement samples—” of the <Enzyme assay 3>. The results for the 10% (w/w) final concentration of the different sugars are shown in FIG. 15G, and the results for the 15% (w/w) final concentration of the different sugars are shown in FIG. 15H.

## N[C@H]1[C@H](O)[C@@H](O)[C@@H](O[C@H]2O[C@H](CO)[C@@H](O)[C@H](O)[C@H]2O)O[C@@H]1CO [4-trehalosamine]
[1]
  change in loss tangent (tan δ) value: little change or a slight increase in the loss tangent value
[2]; final concentration 5% to 15%, 96 hours
  β-amylase degradation rate (starch aging inhibiting effect): maintained β-amylase degradation rate at 96 hours significantly high compared to the other gels
[2]; test sample final concentration 10% (w/w), 6° C., 24 to 96 hours
  rate of degradation by β-amylase (starch aging inhibiting effect): significantly high rate of degradation by β-amylase at and after 24 hours compared to the other gels
[3]
  rate of degradation by β-amylase (starch aging inhibiting effect): significantly high rate of degradation by β-amylase at and after 48 hours compared to the other gels
